Inhibition and IC50 data for 3 molecules are collected here from ChEMBL document CHEMBL2021903, “3-Deoxy-3,4-dehydro analogs of XM462. Preparation and activity on sphingolipid metabolism and cell fate” (Bioorg Med Chem, 2012).

The target in assay [1] is T1, Sphingomyelin phosphodiesterase (Homo sapiens) (UniProt P17405).
T1 sequence (whole entry): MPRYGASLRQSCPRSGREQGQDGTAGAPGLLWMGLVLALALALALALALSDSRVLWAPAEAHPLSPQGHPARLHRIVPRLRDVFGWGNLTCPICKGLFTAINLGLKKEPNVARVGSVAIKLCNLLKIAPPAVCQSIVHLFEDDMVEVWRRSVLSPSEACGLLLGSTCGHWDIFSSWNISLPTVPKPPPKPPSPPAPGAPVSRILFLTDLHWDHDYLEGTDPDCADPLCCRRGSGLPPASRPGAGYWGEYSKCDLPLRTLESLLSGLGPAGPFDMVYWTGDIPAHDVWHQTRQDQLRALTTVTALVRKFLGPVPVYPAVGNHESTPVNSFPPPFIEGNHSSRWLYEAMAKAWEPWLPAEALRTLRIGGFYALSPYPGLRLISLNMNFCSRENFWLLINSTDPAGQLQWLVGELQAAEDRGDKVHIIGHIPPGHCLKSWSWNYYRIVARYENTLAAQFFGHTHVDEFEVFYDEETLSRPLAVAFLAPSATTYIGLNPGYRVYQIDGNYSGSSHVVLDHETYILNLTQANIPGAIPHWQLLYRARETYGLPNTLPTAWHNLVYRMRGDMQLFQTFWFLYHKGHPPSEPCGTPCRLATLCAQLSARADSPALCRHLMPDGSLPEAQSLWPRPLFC
The assay is described as follows: Inhibition of aSMase expressed in human A549 cells using 6-hexadecanoylamino-4-methylumbelliferylphosphorylcholine as substrate at 20 uM after 2 hrs by spectrophotometry. Type of assay: cell-based.

Assay [2] has as its target T2, Lysosomal acid glucosylceramidase (Homo sapiens) (UniProt P04062).
T2 sequence (whole entry): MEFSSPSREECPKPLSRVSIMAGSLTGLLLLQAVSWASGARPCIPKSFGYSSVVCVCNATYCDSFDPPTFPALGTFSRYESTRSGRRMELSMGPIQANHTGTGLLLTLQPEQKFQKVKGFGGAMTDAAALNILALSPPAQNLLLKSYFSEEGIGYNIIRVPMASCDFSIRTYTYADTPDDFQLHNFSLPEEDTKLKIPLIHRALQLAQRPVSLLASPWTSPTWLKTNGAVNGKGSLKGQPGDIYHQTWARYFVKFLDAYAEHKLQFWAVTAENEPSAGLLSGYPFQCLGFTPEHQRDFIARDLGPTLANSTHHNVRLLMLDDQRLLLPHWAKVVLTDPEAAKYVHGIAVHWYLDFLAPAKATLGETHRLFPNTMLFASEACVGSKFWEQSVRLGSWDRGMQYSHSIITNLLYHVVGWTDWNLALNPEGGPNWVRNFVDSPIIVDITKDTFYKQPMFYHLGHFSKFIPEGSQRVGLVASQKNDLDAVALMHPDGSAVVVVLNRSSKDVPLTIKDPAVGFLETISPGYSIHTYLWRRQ
The assay is described as follows: Inhibition of glucocerebrosidase in human A549 cells using 4-methylumbelliferyl beta-D-glucoside as substrate at 20 uM after 45 mins by spectrophotometry. Type of assay: cell-based.

The target of assay [3] is T3, Sphingolipid delta(4)-desaturase DES1 (Homo sapiens, UniProt O15121).
T3 sequence (O15121 whole entry): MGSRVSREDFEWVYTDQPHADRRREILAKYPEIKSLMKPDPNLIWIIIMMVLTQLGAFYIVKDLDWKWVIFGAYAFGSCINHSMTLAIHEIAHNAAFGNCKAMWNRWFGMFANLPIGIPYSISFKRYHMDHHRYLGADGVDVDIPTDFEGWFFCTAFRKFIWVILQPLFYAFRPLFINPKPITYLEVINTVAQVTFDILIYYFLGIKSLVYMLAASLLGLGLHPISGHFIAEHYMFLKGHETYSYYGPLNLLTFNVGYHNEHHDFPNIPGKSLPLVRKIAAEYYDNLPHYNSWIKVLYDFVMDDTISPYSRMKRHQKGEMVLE
The assay can be described thus: Inhibition of Des1 in human A549 cells assessed as formation of CerC6NBD from dhCerC6NBD after 4 hrs by HPLC-FD analysis.

Assay [4] deals with T3, Sphingolipid delta(4)-desaturase DES1. The assay can be described thus: Inhibition of Des1 in human HCT116 cells assessed as formation of CerC6NBD from dhCerC6NBD after 4 hrs by HPLC-FD analysis.
Assay [5] addresses T1, Sphingomyelin phosphodiesterase (Homo sapiens). The assay can be described thus: Inhibition of aSMase expressed in human A549 cells using 6-hexadecanoylamino-4-methylumbelliferylphosphorylcholine as substrate at 10 uM after 2 hrs by spectrophotometry. Type of assay: cell-based.
Assay [6] deals with T2, Lysosomal acid glucosylceramidase (Homo sapiens). The assay is described as follows: Inhibition of glucocerebrosidase in human A549 cells using 4-methylumbelliferyl beta-D-glucoside as substrate at 10 uM after 45 mins by spectrophotometry. It counts as cell-based.
Assay [7] has as its target T1, Sphingomyelin phosphodiesterase (Homo sapiens). The assay is described as follows: Inhibition of aSMase expressed in human A549 cells using 6-hexadecanoylamino-4-methylumbelliferylphosphorylcholine as substrate at 40 uM after 2 hrs by spectrophotometry. Type of assay: cell-based.
In assay [8] the target is T2, Lysosomal acid glucosylceramidase (Homo sapiens). The assay can be described thus: Inhibition of glucocerebrosidase in human A549 cells using 4-methylumbelliferyl beta-D-glucoside as substrate at 40 uM after 45 mins by spectrophotometry. Type of assay: cell-based.

Activity calls are given as the source filed them. The calls are words filed in the database; no cut-off is given here.

For the molecule `CCCCCCCCCCCCCS/C=C/[C@H](CO)NC(=O)C(C)(C)C`, the inhibition result in assay [1] and in assay [2] was “inactive” throughout.
With `CCCCCCCCCCCCCS/C=C/[C@H](CO)NC(=O)CCCCCCC`, the 50% inhibitory concentration (IC50) stood at 18.1 µM in assay [3] and 18.8 µM in assay [4]. Also, the inhibition result in assay [5] and in assay [6] was “inactive” throughout.
Take `CCCCCCCCCCCCCS/C=C/[C@H](CO)NC(=O)c1ccc(C(C)(C)C)cc1`: the inhibition entry in assay [7] and in assay [8] was “inactive” in each case.
